Results taken from patent US20220177471A1, “N-1 BRANCHED ALKYL SUBSTITUTED IMIDAZO[4,5-C]QUINOLINE COMPOUNDS, COMPOSITIONS, AND METHODS” (3M INNOVATIVE PROPERTIES COMPANY, priority 2019, published 2022).
Read-outs that look alike come from different tables or passages of the source.

System: Human peripheral blood mononuclear cells (PBMC)
Assay: Cytokine induction in human cells (PBMC), cytokines by ELISA / multiplex bead assay
Type: cell-based
Conditions: for minimal effective concentration: human PBMC, 21-24 hours, lowest concentration giving cytokine level at least 2x negative control
Protocol: Whole blood was obtained from healthy human donors and collected by venipuncture into vacutainer tubes or syringes containing EDTA. Human peripheral blood mononuclear cells (PBMC) were purified from the whole blood by density gradient centrifugation. Histopaque 1077 (15 mL, Sigma, St. Louis, Mo.) was transferred to 6×50 mL sterile polypropylene conical tubes. The Histopaque was overlayed with 15-25 mL of blood diluted 1:2 in Hank's Balanced Salts Solution (HBSS) (Gibco, Life Technologies, Grand Island, N.Y.). The tubes were then centrifuged at 1370 revolutions per minute (rpm) for 30 minutes at 20° C., with no brake (400×g, GH 3.8 A Rotor).
The interface (buffy coat) containing the PBMC was collected and placed in a new sterile 50 mL conical polypropylene centrifuge tube. The PBMC were mixed with an equal volume of HBSS (about 20 mL from the interface and about 20 mL of HBSS), and then centrifuged at 1090 rpm, 10 minutes, 20° C., with brake (270×g, GH 3.8 A Rotor). After completing centrifugation, the cells were resuspended in 2-3 mL ACK Red blood cell lysis buffer (ammonium chloride potassium solution, Gibco, Life Technologies) and incubated for 2-5 minutes at 20° C. Next, HBSS (40 mL) was added to the cells, and the sample was centrifuged at 270×g for 10 minutes at 20° C. The supernatant was decanted, and the cell pellet was resuspended in 5 mL AIM V Medium (Gibco, Life Technologies). Cell aggregates and debris were removed by filtering the cell solution through a BD Falcon 70 micron nylon cell strainer (BD Biosciences, San Jose, Calif.).
The number of viable cells was determined by counting with a Miltenyi FACS instrument (Miltenyi Biotec Inc., San Diego, Calif.) or by using a hemacytometer. For determining cell viability with a hemacytometer, the cells were diluted 1/10 in 0.4% trypan blue and HBSS (specifically, 50 microliter of trypan blue+40 microliter of HBSS+10 microliter of cell solution were added to a microfuge tube and mixed). Ten microliters of the diluted cells were then applied to the hemacytometer, and the number of viable PBMC were determined by microscopy.
The PBMC sample was then resuspended in 96-well plates at a concentration of 8×10^5 cells/well in 0.1 mL of AIM-V medium. Each compound was solubilized in dimethyl sulfoxide (DMSO) to create a 3 mM stock solution. The stock solution was then further diluted with AIM-V medium to prepare the serial dilutions. The diluted compound (100 microliters) was then transferred to the PBMCs to produce testing sets with final compound concentrations of either 30, 10, 3.3, 1.1, 0.37, 0.12, 0.04, 0.01 micromolar (testing set A); 100, 30, 10, 3.3, 1.1, 0.37, 0.12, 0.04, 0.01, 0.005 micromolar (testing set B); 100, 33.3, 11.1, 3.7, 1.2, 0.41 micromolar (testing set C); or 100, 50, 30, 10, 3.3, 1.1, 0.37, 0.12, 0.04 micromolar (testing set D). The plates also had both positive and negative controls. The negative control wells contained only AIM-V medium with no example compound. The positive control wells contained a control set of imiquimod serially diluted to concentrations of either 30, 10, 3.3, 1.1, 0.37, 0.12, 0.04, 0.01 micromolar (control set A); 100, 30, 10, 3.3, 1.1, 0.37, 0.12, 0.04, 0.01, 0.005 micromolar (control set B); 100, 33.3, 11.1, 3.7, 1.2, 0.41 micromolar (control set C); or 100, 50, 30, 10, 3.3, 1.1, 0.37, 0.12, 0.04 micromolar (control set D). The concentrations used in the control set were selected to match the concentrations used in the testing set. The plates were then cultured at 37° C./5% CO2 for 21-24 hours. Cell-free supernatants were harvested by centrifuging the 96-well plates at 2100 rpm, 23° C. for 10 minutes. Approximately 160 microliters of the supernatant was then stored in a NUNC 96-well plate, covered with the compression cap and stored at −80° C. until the cytokine analysis was done.
IFN-alpha cytokine levels (picograms/mL) were measured by ELISA (human IFN-alpha, pan specific, Mabtech, Cincinnati, Ohio). […]

C[C@@H](C1CCCCC1)n1cnc2c(N)nc3ccccc3c21 [Example 6, 1-[(1S)-1-cyclohexylethyl]imidazo[4,5-c]quinolin-4-amine]
cytokine production (statement in words) (IFN-alpha, IFN-gamma, TNF-alpha): inactive toward cytokine production | minimal effective concentration (ELISA, read-out: MEC to Induce Cytokine: IFN-alpha): > 100 µM | minimal effective concentration (multiplex bead assay, read-out: MEC to Induce Cytokine: IFN-gamma): > 100 µM | minimal effective concentration (multiplex bead assay, read-out: MEC to Induce Cytokine: TNF-alpha): > 100 µM
